Experimental data as given in patent publication US11628186B2, “Method and composition for the reduction of viral replication, duration and spread of the COVID-19 and the flu” (priority 2017, dated 2023).

Columns and labels:
Type in all cases: in vivo, human
[1] = tested on: patients with sinus & lung diseases including IPF and COPD; assay: 20 mM sodium pyruvate nasal sprays with individual or combined ions (Table X)
Excerpt: This patent combined dozens of ingredients, including the use of enzyme, growth factors, sugars, nucleotide and vitamins, amino acids and sodium pyruvate, other nutrients and calcium chloride, magnesium chloride and calcium phosphate other ingredients to stimulate the growth of cartilage and collagen for knees and joints.

[2] = tested on: patients with hypoxemia with and without lung diseases; assay: Comparison of 5 ml of 5 mM sodium pyruvate saline formulas (Table III); conditions: 5 ml of 5 mM formula
[3] = tested on: COPD patients with Allergic Rhinitis; assay: 20 mM sodium pyruvate nasal sprays over three months (Table VI); conditions: 20 mM nasal spray
[4] = tested on: patients with various cancers and chronic Hypoxemia; assay: Cancer trial pilot study; conditions: in saline, without calcium, phosphate and magnesium
Procedure: In eleven patients with various cancers and chronic Hypoxemia, five with lung cancer, including three with non-small cell lung cancer and six with various other cancers, […], which increased SaO2 levels in these patients to enhance the effect of the chemotherapy or radiation, and increased the synthesis of lung surfactants in lung alveoli cells to protect normal cells and help reduce hypoxia in cancer cells. These patients inhaled the formula one to two hours before they were treated with cancer drugs or radiation, given by current standard methods, and continued to inhale the surfactant enhancer formula twice a day for the eight weeks following the chemo therapy treatment. Because these patients are older, they often lack good nutritional eating habits, which effects their immune system. Thus, the patients were also given a proprietary diet high in a unique blend of antioxidants, and nutrients, that they consumed every day before and after chemo or radiation. Good nutrition is always a plus when patients undergo chemo or radiation as sited in numerous published articles. The diet specifically designed for patients with cancer and hypoxemia included calcium pyruvate, dicalcium phosphate and magnesium in their components. […]

[5] = tested on: patients suffering from severe lung injury or mitochondrial damage or COPD and Hypoxemia; assay: Two months nebulized treatment, lung capacity; conditions: phosphate and magnesium
Excerpt: Total lung capacity is the volume in the lungs at maximal inflation, the sum of VC and RV. RV is the residual volume of air remaining in the lungs after a maximal exhalation. VC vital capacity is the volume of air breath out after the deepest inhalation. Vital capacity in males is 4.8 liters and in women 3.8 liters. Slow vital capacity (SVC) is the maximum volume of air that can be exhaled slowly after slow maximum inhalation. Three male patients suffering from severe lung injury or mitochondrial damage or COPD and Hypoxemia were treated as described below for two (2) months. […] In fact, dramatic results were observed within two (2) weeks.
[…] The sterile pyruvate 15 solution is placed into a “Pulmo Aid” nebulizer manufactured by DeVilbiss Co., Somerset, Pa. 15501-0635. The sterile pyruvate solution is nebulized by the Pulmo Aid device fitted with a disposable nebulizer and inhaled by the patient. The patient inhales normally from the Pulmo Aid nebulizer until all of the solution has been nebulized and inhaled. This inhalation step typically takes about ten (10) to twenty 20 (20) minutes. The patients were treated with this inhalation therapy periodically. Initially, treatments are about four (4) times a day at about six (6) hour intervals. Treatments were reduced to three (3) times a day at about eight (8) hour intervals after 20 days of therapy. […]

[6] = 20 mM sodium pyruvate nasal spray in saline with the listed ions

CC(=O)C(=O)[O-].[Na+] [Sodium, sodium pyruvate]
Increased in FEV-1% [1, 6]: 12.0% | Irritation [1, 6]: None | Percentage Increase in SaO2 over baseline [1, 6]: 2% | Percentage increase of Nitric Oxide over baseline [1, 6]: 20.0% | Relief of congestion, coughing and lung tightness [1, 6]: 6 | Overall Rating 1-10 ([1]; 1 most negative, 10 best): 7 | Percentage Increase in FEV-1 over baseline ([2]; inhaled): 4.0% | Percentage Increase in SaO2 over baseline ([2]; inhaled): 0% | Percentage increase of Nitric Oxide over baseline ([2]; inhaled): 18.0%^ | Relief of Congestion and lung tightness 1-10 ([2]; inhaled): 5 | Relief of coughing percentage decrease in four hours ([2]; inhaled): 15% | Overall Rating 1-10 ([2]; 1 most negative, 10 best): 7 | Overall Rating 1-10 [3]: 7 | Percentage decrease in COPD symptoms [3]: 18.0% | Percentage decrease in us of RX medications [3]: 20% | Rating 1-10 Congestion and lung tightness [3]: 5 | Rating 1-10 decrease in shortness of breath [3]: 6.0 | Relief of coughing. Percentage Daily decrease [3]: 15% | raises nitric oxide [4]: 19% | improvement in SaO2 levels ([5]; one of the three patients, end of the two months, without calcium): 3% | improvement in lung functions, especially total lung capacity ([5]; same three patients, formulas without the calcium): no or little improvement in lung functions
